According to US20260325504A1, “Genetically Engineered Human Pituitary Corticotroph Tumor Organoids Exhibit Divergent Responses to Selective Glucocorticoid Receptor Modulators” (Corcept Therapeutics Incorporated, priority 2022, published 2026):
“Also recorded” adds a separate entry of the source.

Tests used:
Format in all cases: cell-based, human
ACTH = experiment: Spectral flow cytometry, ACTH positive cells, hPITOs
Excerpt: (§1) 1.3 Generation and Culture of Human PitNET Tissue Organoids (hPITOs)
(§2) Patients undergoing planned transsphenoidal surgery for PitNETs were identified in the outpatient neuroendocrinology and neurosurgery clinics and collected by the St. Joseph's Hospital and Barrow Neurological Institute Biobank under the collection protocol PHXA-05TS038, and outcomes data protocol PHXA-0004-72-29 with approval of the Institutional Review Board (IRB) and patient consent. De-identified samples were shipped in collection and transport media (Table 3) to the Zavros laboratory (University of Arizona) for processing within 24 hours of collection. Resected PitNET tissues were washed with Dulbeccos Phosphate Buffered Saline (DPBS) supplemented with 1× Penicillin/Streptomycin, 1× Kanamycin and 1× Amphotericin/Gentamycin, minced into smaller pieces, and incubated with digestion buffer (Dulbecco's Modified Eagle Medium/Nutrient Mixture F-12 (DMEM/F12) supplemented with 0.4% Collagenase 2, 0.1% Hyaluronic Acid, 0.03% Trypsin). The tissue was incubated with Accutase (Thermo Fisher Scientific) for a further 5 minutes, and the cells were pelleted and washed with DPBS supplemented with antibiotics. Dissociated cells were then seeded as Matrigel™ domes in culture dishes and overlaid with growth media (Table 4). Media was replaced every 3 days and organoids were harvested for downstream experiments or passaged after 15 days of culture (FIG. 1B).
(§3) Sonic Hedgehog (SHH) was withdrawn from the organoid growth media 16 hours prior to treatment. […] The IC50 values used for each hPITO line for each drug were determined based on dose responses (FIG. 12). […]

SSTR5 = experiment: Spectral flow cytometry, SSTR5 positive cells, hPITOs; details: hPITO, 48 h, FIGS. 9G
Excerpt: as §1, §2, §3

iPSC^USP48MV organoids = experiment: Spectral flow cytometry, Zombie positive cells (cell death), iPSCUSP48MV organoids; details: 48 h, FIGS. 8D
Method: Sonic Hedgehog (SHH) was withdrawn from the organoid growth media 16 hours prior to treatment. The experimental treatment groups included: vehicle (Veh), mifepristone (500 nM, Selleckchem S2606), GANT61 (5 μM, Stemcell Technologies 73692), ketoconazole (Keto, 10 μM, Selleckchem S1353), pasireotide (Pas, 100 nM, Target Mol TP2207-SB001), octreotide (Oct, 100 nM, Selleckchem P1017), mifepristone plus GANT61, mifepristone plus Keto, mifepristone plus Pas, relacorilant (500 nM, Corcept Therapeutics CORT125134), relacorilant plus Pas, relacorilant plus Oct, or dexamethasone (Dexa, 100 nM, SIGMA S4902). In the combination treatments, cultures were pretreated with the GANT61, Keto, Pas or Oct for 2 hours prior to treatment with mifepristone or Rela. PitNET tissue derived organoids hPITO36, hPITO37, hPITO38, hPITO39, and hPITO40 were treated with the following experimental conditions: Vehicle (1), pasireotide (2), relacorilant (3), relacorilant & pasireotide (4), mifepristone (5), mifepristone & pasireotide (6). The IC50 values used for each hPITO line for each drug were determined based on dose responses (FIG. 12). […]
The multicolor flow cytometry antibody panel was designed using the Cytek® Full Spectrum Viewer online tool to calculate the similarity index. […] Data was acquired using the Cytek® Aurora, analyzed using Cytobank Premium software (Beckman Coulter).

hPITO = experiment: Spectral flow cytometry, Zombie positive cells (cell death), hPITOs; details: 48 h, FIGS. 9K, L
Excerpt: as §1, §2
(§4) Sonic Hedgehog (SHH) was withdrawn from the organoid growth media 16 hours prior to treatment. The experimental treatment groups included: vehicle (Veh), mifepristone (500 nM, Selleckchem S2606), GANT61 (5 μM, Stemcell Technologies 73692), ketoconazole (Keto, 10 μM, Selleckchem S1353), pasireotide (Pas, 100 nM, Target Mol TP2207-SB001), octreotide (Oct, 100 nM, Selleckchem P1017), mifepristone plus GANT61, mifepristone plus Keto, mifepristone plus Pas, relacorilant (500 nM, Corcept Therapeutics CORT125134), relacorilant plus Pas, relacorilant plus Oct, or dexamethasone (Dexa, 100 nM, SIGMA S4902). In the combination treatments, cultures were pretreated with the GANT61, Keto, Pas or Oct for 2 hours prior to treatment with mifepristone or Rela. PitNET tissue derived organoids hPITO36, hPITO37, hPITO38, hPITO39, and hPITO40 were treated with the following experimental conditions: Vehicle (1), pasireotide (2), relacorilant (3), relacorilant & pasireotide (4), mifepristone (5), mifepristone & pasireotide (6). The IC50 values used for each hPITO line for each drug were determined based on dose responses (FIG. 12). All organoid cultures were treated for 48 hours prior to analysis.
The multicolor flow cytometry antibody panel was designed using the Cytek® Full Spectrum Viewer online tool to calculate the similarity index. Organoids were harvested in cold Serum-Free Defined Medium media and incubated with Zombie (BioLegend 423107, 1:100) for 15 minutes in the dark at room temperature, followed by incubation with fluorochrome-conjugated/unconjugated primary surface or cytoplasmic antibodies (Table 6) at 4° C. for 30 minutes. Cells were then washed with Cell Staining Buffer (BioLegend 420-201) and incubated at 4° C. for 30 minutes with secondary antibodies (Table 6). Cells were fixed using Cytofix/Cytoperm™ Fixation/Permeabilization Solution (BD Biosciences 554714) and washed with Fixation/Permeabilization wash buffer according to the recommended protocol. […]

SSTR2 = experiment: Spectral flow cytometry, SSTR2 positive cells, iPSCUSP48MV organoids; details: 48 h, FIGS. 8A, E
Method: as §4
The multicolor flow cytometry antibody panel was designed using the Cytek® Full Spectrum Viewer online tool to calculate the similarity index. Organoids were harvested in cold Serum-Free Defined Medium media and incubated with Zombie (BioLegend 423107, 1:100) for 15 minutes in the dark at room temperature, followed by incubation with fluorochrome-conjugated/unconjugated primary surface or cytoplasmic antibodies (Table 6) at 4° C. for 30 minutes. Cells were then washed with Cell Staining Buffer (BioLegend 420-201) and incubated at 4° C. for 30 minutes with secondary antibodies (Table 6). Cells were fixed using Cytofix/Cytoperm™ Fixation/Permeabilization Solution (BD Biosciences 554714) and washed with Fixation/Permeabilization wash buffer according to the recommended protocol. […] Data was acquired using the Cytek® Aurora, analyzed using Cytobank Premium software (Beckman Coulter).

CC#C[C@]1(O)CC[C@H]2[C@@H]3CCC4=CC(=O)CCC4=C3[C@@H](c3ccc(N(C)C)cc3)C[C@@]21C [mifepristone, 11β-(4-dimethylaminophenyl)-17ß-hydroxy-17α-(1-propynyl)-estra-4,9-dien-3-one]
number of ACTH expressing cells / ACTH (ACTH; hPITO, 48 h, FIGS. 9I, J): significantly increased the number of ACTH expressing cells | percentage of SSTR5 positive cells (SSTR5): significant increase | cell death (Zombie positive cells) (iPSC^USP48MV organoids): not observed | cell death (Zombie positive cells) (hPITO): not observed | magnitude of SSTR2 induction, mifepristone vs relacorilant (SSTR2): significantly greater than that of relacorilant | percentage of SSTR2 positive cells (SSTR2): significant increase

Cn1cc(S(=O)(=O)N2CCC3=Cc4c(cnn4-c4ccc(F)cc4)C[C@]3(C(=O)c3cc(C(F)(F)F)ccn3)C2)cn1 [relacorilant, (R)-(1-(4-fluorophenyl)-6-((1-methyl-1H-pyrazol-4-yl)sulfonyl)-4,4a,5,6,7,8-hexahydro-1H-pyrazolo[3,4-g]isoquinolin-4a-yl) (4-(trifluoromethyl)pyridin-2-yl) methanone]
sensitization of organoids to pasireotide (ACTH; CD PitNET tissue derived organoids): sensitizes CD PitNET tissue derived organoids to pasireotide; also recorded: sensitized organoid tumor cells to suppression of ACTH by pasireotide | magnitude of SSTR5 induction, relacorilant vs mifepristone (SSTR5): significantly greater than that of mifepristone | percentage of SSTR5 positive cells (SSTR5): significant increase; also recorded: significantly upregulated | cell death (Zombie positive cells) (iPSC^USP48MV organoids): significant increase in Zombie positive cells | cell death (Zombie positive cells) (hPITO): significant increase in cell death | cell death in epithelial/mesenchymal hybrid cell population (CK20, vimentin, CXCR4) (hPITO): significant cell death | cell death in populations expressing stem cell markers SOX2, CXCR4 and nestin (hPITO): significant cell death | cell death (Zombie positive cells) (hPITO; listed as Relacorilant): Induces Tumor Cell Death; also recorded: significant increase in Zombie positive cells | percentage of SSTR2 positive cells (SSTR2): significant increase
